“And” between values parts separate entries of the source, which are not always exact repeats. Equal values may be shown once. Toxic doses and inconclusive results are not listed.
Tested on: B6C3F1 mice, intracerebral ependymoblastoma, median survival T/C
Test: NCI In Vivo Anticancer Drug Screen. Data for tumor model Ependymoblastoma (intracerebral) in B6C3F1 mice
Conditions: endpoint: median survival time, higher = longer survival
Procedure: The antitumor activity of compounds was measured in mice bearing transplantable tumors. Survival or tumor size were measured and the results are expressed as the measurement made in the treated group (T) divided by the measurement made in the vehicle treated control group (C). The tumor model used in this assay is Ependymoblastoma (intracerebral) in B6C3F1 mice

[1] = dose: 32.0 mg/kg/injection, schedule: Q01DX005 (ip), vehicle: Klucel (hydroxypropylcellulose) (HPC)
[2] = dose: 64.0 mg/kg/injection, schedule: Q01DX005 (ip), vehicle: Klucel (hydroxypropylcellulose) (HPC)
[3] = dose: 128.0 mg/kg/injection, schedule: Q01DX005 (ip), vehicle: Klucel (hydroxypropylcellulose) (HPC)
[4] = dose: 32.0 mg/kg/injection, schedule: Q01DX005 (ip), vehicle: saline
[5] = dose: 64.0 mg/kg/injection, schedule: Q01DX005 (ip), vehicle: saline
[6] = dose: 128.0 mg/kg/injection, schedule: Q01DX005 (ip), vehicle: saline
[7] = dose: 16.0 mg/kg/injection, schedule: Q01DX005 (ip), vehicle: saline
[8] = dose: 6.25 mg/kg/injection, schedule: Q01DX005 (ip), vehicle: saline with Tween-80

Compound: CS(C)=O
- T/C (dose: 500.0 mg/kg/injection, schedule: Q01DX005 (ip), vehicle: water): 103 % of control
- T/C (dose: 1000.0 mg/kg/injection, schedule: Q01DX005 (ip), vehicle: saline): 98 % of control
- T/C (dose: 1000.0 mg/kg/injection, schedule: Q01DX005 (ip), vehicle: water): 97 % of control
- T/C (dose: 2000.0 mg/kg/injection, schedule: Q01DX001 (ip), vehicle: saline): 96 % of control and 98 % of control and 100 % of control
- T/C (dose: 2000.0 mg/kg/injection, schedule: Q01DX005 (ip), vehicle: saline): 109 % of control
- T/C (dose: 2000.0 mg/kg/injection, schedule: Q01DX005 (ip), vehicle: water): 103 % of control
- T/C (dose: 2.0 grams/kg/injection, schedule: Q01DX001 (ip), vehicle: saline): 102 % of control
- T/C (dose: 4000.0 mg/kg/injection, schedule: Q01DX001 (ip), vehicle: saline): 91 % of control and 95 % of control and 103 % of control
- T/C (dose: 4000.0 mg/kg/injection, schedule: Q01DX005 (ip), vehicle: saline): 103 % of control
- T/C (dose: 4000.0 mg/kg/injection, schedule: Q01DX005 (ip), vehicle: water): 105 % of control
- T/C (dose: 4.0 grams/kg/injection, schedule: Q01DX001 (ip), vehicle: saline): 95 % of control
- T/C (dose: 8000.0 mg/kg/injection, schedule: Q01DX001 (ip), vehicle: saline): 101 % of control (2×) and 107 % of control
- T/C (dose: 8000.0 mg/kg/injection, schedule: Q01DX005 (ip), vehicle: saline): 103 % of control
- T/C (dose: 8000.0 mg/kg/injection, schedule: Q01DX005 (ip), vehicle: water): 98 % of control
- T/C (dose: 8.0 grams/kg/injection, schedule: Q01DX001 (ip), vehicle: saline): 99 % of control
- T/C (dose: 16000.0 mg/kg/injection, schedule: Q01DX001 (ip), vehicle: saline): 93 % of control

Compound: CN1C(=O)CC(c2ccc(NC(=O)N(CCCl)N=O)cc2)C1=O (stereo not given)
- T/C (dose: 0.75 mg/kg/injection, schedule: Q01DX005 (ip), vehicle: distilled water + Tween-80): 119 % of control
- T/C (dose: 1.5 mg/kg/injection, schedule: Q01DX005 (ip), vehicle: distilled water + Tween-80): 180 % of control
- T/C (dose: 6.0 mg/kg/injection, schedule: Q01DX005 (ip), vehicle: distilled water + Tween-80): 210 % of control
- T/C (dose: 12.0 mg/kg/injection, schedule: Q01DX005 (ip), vehicle: distilled water + Tween-80): 240 % of control

Compound: CC(C)=CCC1=C(O)c2ccccc2C(=O)C1=O
- T/C [1]: 91 % of control
- T/C [2]: 100 % of control
- T/C [3]: 96 % of control

Compound: O=NN(CCCl)C(=O)NC1[C@H](O)CCC[C@@H]1O (stereo not given in full)
- T/C (dose: 2.59 mg/kg/injection, schedule: Q01DX005 (ip), vehicle: Klucel (hydroxypropylcellulose) (HPC)): 236 % of control
- T/C (dose: 4.32 mg/kg/injection, schedule: Q01DX001 (ip), vehicle: saline): 115 % of control
- T/C (dose: 4.32 mg/kg/injection, schedule: Q01DX005 (ip), vehicle: Klucel (hydroxypropylcellulose) (HPC)): 357 % of control
- T/C (dose: 4.32 mg/kg/injection, schedule: Q01DX005 (ip), vehicle: saline): 281 % of control
- T/C (dose: 7.2 mg/kg/injection, schedule: Q01DX005 (ip), vehicle: Klucel (hydroxypropylcellulose) (HPC)): 357 % of control
- T/C (dose: 7.2 mg/kg/injection, schedule: Q01DX005 (ip), vehicle: saline): 281 % of control
- T/C (dose: 12.0 mg/kg/injection, schedule: Q01DX001 (ip), vehicle: saline): 163 % of control
- T/C (dose: 12.0 mg/kg/injection, schedule: Q01DX005 (ip), vehicle: Klucel (hydroxypropylcellulose) (HPC)): 88 % of control
- T/C (dose: 20.0 mg/kg/injection, schedule: Q01DX001 (ip), vehicle: saline): 218 % of control

Compound: O=C(NC1CCCCC1)OCc1c(COC(=O)NC2CCCCC2)c(-c2ccc(Cl)c(Cl)c2)n2c1CCC2
- T/C (dose: 50.0 mg/kg/injection, schedule: Q01DX005 (ip), vehicle: saline with Tween-80): 99 % of control and 102 % of control
- T/C (dose: 100.0 mg/kg/injection, schedule: Q01DX005 (ip), vehicle: saline with Tween-80): 92 % of control and 108 % of control
- T/C (dose: 200.0 mg/kg/injection, schedule: Q01DX005 (ip), vehicle: saline with Tween-80): 104 % of control and 115 % of control
- T/C (dose: 400.0 mg/kg/injection, schedule: Q01DX005 (ip), vehicle: saline with Tween-80): 115 % of control and 118 % of control
- T/C (dose: 800.0 mg/kg/injection, schedule: Q01DX005 (ip), vehicle: saline with Tween-80): 106 % of control and 110 % of control

Compound: CCC(=O)NC1=C(N2CC2C)C(=O)C(NC(=O)CC)=C(N2CC2C)C1=O (stereo not given)
- T/C (dose: 0.78 mg/kg/injection, schedule: Q01DX009 (ip), vehicle: Klucel (hydroxypropylcellulose) (HPC)): 105 % of control
- T/C (dose: 1.56 mg/kg/injection, schedule: Q01DX009 (ip), vehicle: Klucel (hydroxypropylcellulose) (HPC)): 110 % of control
- T/C (dose: 3.12 mg/kg/injection, schedule: Q01DX009 (ip), vehicle: Klucel (hydroxypropylcellulose) (HPC)): 106 % of control
- T/C (dose: 6.25 mg/kg/injection, schedule: Q01DX009 (ip), vehicle: Klucel (hydroxypropylcellulose) (HPC)): 105 % of control

Compound: CC(C)[C@](O)(C(=O)OCC1=CC[N+]2([O-])CC[C@@H](O)[C@@H]12)[C@H](C)O (stereo not given in full)
- T/C [4]: 104 % of control
- T/C [5]: 98 % of control and 101 % of control
- T/C [6]: 95 % of control and 100 % of control
- T/C (dose: 256.0 mg/kg/injection, schedule: Q01DX005 (ip), vehicle: saline): 103 % of control and 108 % of control
- T/C (dose: 512.0 mg/kg/injection, schedule: Q01DX005 (ip), vehicle: saline): 94 % of control and 117 % of control

Compound: CN(Cc1cnc2nc(N)nc(N)c2n1)c1c(Cl)cc(C(=O)NC(CCC(=O)O)C(=O)O)cc1Cl (stereo not given)
- T/C (dose: 16.0 mg/kg/injection, schedule: Q01DX005 (ip), vehicle: saline with Tween-80): 95 % of control and 114 % of control
- T/C [7]: 100 % of control
- T/C [1]: 100 % of control
- T/C (dose: 32.0 mg/kg/injection, schedule: Q01DX005 (ip), vehicle: saline with Tween-80): 97 % of control and 107 % of control
- T/C [4]: 92 % of control and 103 % of control
- T/C [2]: 104 % of control
- T/C (dose: 64.0 mg/kg/injection, schedule: Q01DX005 (ip), vehicle: saline with Tween-80): 100 % of control and 107 % of control
- T/C [5]: 101 % of control and 104 % of control
- T/C [3]: 89 % of control
- T/C (dose: 128.0 mg/kg/injection, schedule: Q01DX005 (ip), vehicle: saline with Tween-80): 98 % of control and 100 % of control
- T/C [6]: 100 % of control and 106 % of control
- T/C (dose: 256.0 mg/kg/injection, schedule: Q01DX005 (ip), vehicle: Klucel (hydroxypropylcellulose) (HPC)): 96 % of control

Compound: CC(C)(C)N1CC1CNC(=O)C(=O)NCC1CN1C(C)(C)C (stereo not given)
- T/C (dose: 1.5 mg/kg/injection, schedule: Q01DX005 (ip), vehicle: saline with Tween-80): 96 % of control
- T/C (dose: 3.0 mg/kg/injection, schedule: Q01DX005 (ip), vehicle: saline with Tween-80): 102 % of control and 112 % of control
- T/C (dose: 3.12 mg/kg/injection, schedule: Q01DX005 (ip), vehicle: saline with Tween-80): 112 % of control
- T/C (dose: 6.0 mg/kg/injection, schedule: Q01DX005 (ip), vehicle: saline with Tween-80): 102 % of control and 114 % of control
- T/C [8]: 116 % of control
- T/C (dose: 12.0 mg/kg/injection, schedule: Q01DX005 (ip), vehicle: saline with Tween-80): 115 % of control and 119 % of control

Compound: CC(C)c1cc(C(=O)O)c(O)c(C(C)C)c1.CC(C)c1cc(C(=O)O)c(O)c(C(C)C)c1.[Cu]
- T/C [8]: 103 % of control
- T/C (dose: 12.5 mg/kg/injection, schedule: Q01DX005 (ip), vehicle: saline with Tween-80): 103 % of control

Compound: CCC1=C(c2ccc(OC)cc2)CCC(C(=O)O)C1C (stereo not given)
- T/C (dose: 4.0 mg/kg/injection, schedule: Q01DX005 (ip), vehicle: saline): 102 % of control
- T/C (dose: 8.0 mg/kg/injection, schedule: Q01DX005 (ip), vehicle: saline): 102 % of control
- T/C [7]: 102 % of control
- T/C [4]: 103 % of control

Source: PubChem BioAssay AID226 (DTP/NCI, 2004)
